According to patent US20260216347A1, “Substituted Imidazo-Based Compounds as Ligand Directed Degraders of IRAK3” (Celgene Corporation, priority 2022, published 2026):

Experiments:
[1] = target: T1, IRAK3 (Homo sapiens, UniProt Q9Y616); test: IRAK endogenous HTRF degradation assay (Total-IRAK3 HTRF kit); type: cell-based; settings: overnight incubation, lowest percentage of protein remaining
T1 construct: IRAK Endogenous HTRF Degradation Assay; endogenous in cells
T1 sequence (Q9Y616 1-596): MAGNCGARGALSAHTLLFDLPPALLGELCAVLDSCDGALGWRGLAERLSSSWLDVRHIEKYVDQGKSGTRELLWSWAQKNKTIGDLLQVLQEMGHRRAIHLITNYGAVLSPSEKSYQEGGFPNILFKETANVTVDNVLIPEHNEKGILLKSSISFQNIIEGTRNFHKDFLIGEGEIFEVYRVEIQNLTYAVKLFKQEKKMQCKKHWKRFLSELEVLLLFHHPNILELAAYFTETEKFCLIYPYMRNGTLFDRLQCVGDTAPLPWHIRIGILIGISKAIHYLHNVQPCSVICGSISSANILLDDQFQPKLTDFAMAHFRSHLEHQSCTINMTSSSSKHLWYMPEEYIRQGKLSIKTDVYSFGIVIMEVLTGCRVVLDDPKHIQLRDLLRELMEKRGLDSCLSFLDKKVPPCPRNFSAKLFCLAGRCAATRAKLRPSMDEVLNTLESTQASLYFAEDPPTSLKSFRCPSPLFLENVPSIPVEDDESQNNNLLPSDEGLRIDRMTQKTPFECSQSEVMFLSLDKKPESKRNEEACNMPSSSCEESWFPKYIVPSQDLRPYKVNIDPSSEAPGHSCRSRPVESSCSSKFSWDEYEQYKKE
Protocol: Example B2. IRAK Endogenous HTRF Degradation Assay
Cells (~50 k) were plated in Cisbio 96-well low volume white plates (Cisbio: cat #66PL96005). Compounds were dissolved in DMSO and a 3-fold serial dilution was performed using a TECAN D300E. Cells were incubated with the compound overnight. Total-IRAK3 HTRF kit from Cisbio was used for degradation analysis (Cisbio: 63ADK101PEH). Cryptate and D2 antibodies were diluted in Detection buffer as per manufacturers recommendation. Then 2 μL of each solution was added to 16 μL lysate. Buffer control (lysis buffer detection buffer), Cryptate control (lysis buffer+cryptate antibody+detection buffer), and Negative control (lysis buffer+cryptate antibody+D2 antibody) were made as per manufacturers recommendation. Post incubation with antibodies the HTRF signal was measured using a Perkin Elmer Envision reader and the HTRF signal was calculated using formula: (Emission at 665 nm/Emission at 615 nm)*10,000. All HTRF values were normalized to the average value of DMSO. The average value of the DMSO control wells were set to equal 100% of the relative IRAK3 protein levels. Normalized luminescence values were plotted on a graph as a function of compound concentration. Compound concentration was plotted on the x-axis and the corresponding normalized IRAK3 protein levels on the y-axis. The EC50 value (the half-maximum effective concentration) of a compound for the degradation of the IRAK3 was calculated using a four-parameter logistic model (sigmoidal dose-response model) (FIT=(A+{(B−A)/1+[(C/x)D]})) where C is the inflection point (EC50), D is the […], and A and B are the low and high limits of the fit, respectively). The Ymin was calculated by determining the lowest percentage of target protein remaining following compound treatment. Dmax was calculated from Ymin (% Dmax=100−Ymin).
Using these assays, IC50, Dmax, EC50, and DC50 values of the following compounds were determined. Dmax is defined as the maximum percent degradation achieved and DC50 is the concentration at which 50% degradation is achieved.

[2] = target: T2, IRAK3-ePL (Homo sapiens, UniProt Q9Y616); test: IRAK3-ePL overexpressing degradation assay (InCELL Hunter luminescence, dose response); type: cell-based; settings: for IRAK3 ePL degradation Ymin: lowest percentage of target protein remaining following compound treatment; for DC50: read-out: IRAK3 ePL degradation EC50
T2 construct: expressed in transfected cells; host or cells: 293T CRBN OE/GSPT1 G575N KI cells, lentiviral transduction, puromycin selected
Protocol: Example B1. IRAK3-ePL Overexpressing Degradation Assay
Stable cell lines were generated by the following protocol. 3×10^5 Lenti-X 293T cells (Clonetech) were plated in 0.8 mL of media in a 12-well plate and incubated overnight at 37° C./5% CO2. Packaging plasmid (0.4 μg, pMD), envelope plasmid (0.4 μg, pSP), and lentiviral transfer IRAK3-ePL plasmid (0.8 μg, TRAK3 sequence NM_007199.3) were mixed in 0.1 mL of Opti-MEM and incubated for 5 min. Simultaneously, 2.4 μL of Lipofectamine 2000 (Invitrogen) was added to 0.1 mL of Opti-MEM (Gibco) and incubated for 5 min. The plasmid DNA and lipofectamine were combined and the mixture was allowed to incubate for 20 min.DNA:Lipofectamine Opti-MEM mixtures were then added to previously plated cells dropwise and the cells were incubated for ~16 h at 37° C./5% CO2. Following incubation, the media was removed and 1.2 mL of fresh media was added per well. Lenti-X 293T cells were incubated for ~30 h at 37° C./5% CO2. […] Following incubation, media was removed from the Lenti-X 293T wells and passed through a […] filter. Part of the viral supernatant was used to transduce cells and the rest was stored at −80° C. Viruses were then added individually (0.5 mL virus) to each well of the 293T^CRBN OE/GSPT1 G575N KI cells, followed by addition of polybrene (10 mg/mL Millipore) to each well at a final concentration of 5.0 μg/mL. Cells were incubated for ~24 h at 37° C./5% CO2. After aspirating media off plates, cells were washed with DPBS, trypsinized and plated in a 10 cm dish in 15 mL of media and […] puromycin. Following incubation of cells for ~72 h at 37° C./5% CO2, media was aspirated off plates, and cells were washed with DPBS and trypsinized. The cells were plated in a 15 cm dish in 40 mL of media with 1.0 μg/mL Puromycin (Gibco) and incubated for ~72 h at 37° C./5% CO2. Following incubation, media was removed and cells were washed with DPBS and trypsinized. The majority of cells were resuspended in Invitrogen freezing media and stored away (~6-8×10^6 cells/vial).
IRAK3-ePL cellular dose response curve degradation assays were performed by the following protocol. Compounds to be tested were dispensed into a white 384-well tissue-culture treated plate using an acoustic liquid handler. Dilutions were prepared based on a 25 μL assay volume in duplicate 10 point 3-fold serial dilutions starting with a 10 μM dose. Negative control wells were included, which only contain 0.2% DMSO to calculate 100% signal. Positive control wells containing 30 μM Ataluren (luciferase inhibitor) were included to calculate the background signal level. All wells were backfilled to a final DMSO concentration of 0.2% to ensure DMSO uniformity across wells. IRAK3-ePL expressing cells (IRAK3-ePL Lenti-X 293T^CRBN/GSPT1 G575N) were washed, trypsinized, counted, and resuspended in fresh DMEM (Gibco) to give a cell concentration of 200,000 cells/mL. 25 μL of cells (5,000 cells/well) were dispensed into the wells of the 384-well plate prespotted with compounds in the previous step and incubated overnight at 37° C./5% CO2. Following incubation, the 384-well plate was taken out of the incubator and left at room temperature for 30 min. InCELL hunter reagent was prepared according to manufacturer's instructions (EA reagent, lysis buffer, and substrate reagent in a 1:1:4 ratio, Cat #96-0002, DiscoverX), which was added to the 384-well plate 25 μL per well. Following the incubation of the plate for 1 h at room temperature, the luminescence signal was read using a ViewLux plate reader. Data was processed and analyzed in ActivityBase software. In short, the average luminescence values of the positive control wells were subtracted from the rest of the wells for background correction, and all luminescence values were normalized to the DMSO control wells. The average value of the DMSO control wells was set to equal 100% of the relative IRAK3-ePL protein levels. […]

[3] = target: T1, IRAK3; test: IRAK3 biochemical binding assay (LanthaScreen Eu Kinase Binding, TR-FRET)
Method in brief: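 TR-FRET tracer-displacement binding with 10 nM IRAK3, 2 nM Eu-anti-GST antibody and 10 nM tracer in 50 mM HEPES pH 7.4, MgCl2, 1 mM EGTA, 0.01% Brij-35. Compounds in 3-fold dilutions, 1 h at room temperature. 665/615 nm ratio gave % inhibition; IC50 and Hill slope from dose-response fit.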

SMILES | IRAK3 HTRF degradation Ymin [1] [%] | IRAK3 ePL degradation Ymin [2] [%] | DC50 [2] [nM] | IC50 [3] [nM]
O=C1CCC(N2C(=O)c3ccc(N4CCN(C(=O)CN5CCC(n6cc(Nc7ncc(-c8ccc9c(c8)NC(=O)CO9)n8ccnc78)cn6)CC5)CC4)cc3C2=O)C(=O)N1 (stereo not shown) [Compound 21, 2-(2,6-dioxopiperidin-3-yl)-5-(4-(2-(4-(4-((5-(3-ox0-3,4-dihydro-2H-benzo[b][1,4]oxazin-6-yl)imidazo[1,2-a]pyrazin-8-yl)amino)-1H-pyrazol-1-yl)piperidin-1-yl)acetyl)piperazin-1-yl)isoindoline-1,3-dione] | 25 | – | – | –
Cc1cc(-c2cnc(Nc3cnn(C4CCN(C(=O)CN5CCN(c6ccc(C7CCC(=O)NC7=O)cc6)CC5)CC4)c3)c3nccn23)c(F)cc1F (stereo not shown) [Compound 23, 3-(4-(4-(2-(4-(4-((5-(2,4-difluoro-5-methylphenyl)imidazo[1,2-a]pyrazin-8-yl)amino)-1H-pyrazol-1-yl)piperidin-1-yl)-2-oxoethyl)piperazin-1-yl)phenyl)piperidine-2,6-dione] | 17 | – | – | –
Cc1cc(-c2cnc(Nc3cnn([C@@H]4CCN(CCN5CCN(c6ccc(C7CCC(=O)NC7=O)cc6)C[C@H]5C)[C@H](C)C4)c3)c3nccn23)c(F)cc1F (stereo partly drawn) [Compound 29, 3-(4-((R)-4-(2-((2R,4R)-4-(4-((5-(2,4-difluoro-5-methylphenyl)imdazo [1,2-a]pyrazin-8-yl)amino)-1H-pyrazol-1-yl)-2-methylpiperidin-1-yl)ethyl)-3-methylpiperazin-1-yl)phenyl) piperidine-2,6-dione] | 14 | 24 | 0.51 | –
Cc1cc(-c2cnc(Nc3cnn([C@@H]4CCN(CCN5CCN(c6ccc(C7CCC(=O)NC7=O)cc6)CC5)[C@H](C)C4)c3)c3nccn23)c(F)cc1F (stereo partly drawn) [Compound 30, 3-(4-(4-(2-((2R,4R)-4-(4-((5-(2,4-difluoro-5-methylphenyl)imdazo [1,2-a]pyrazin-8-yl)amino)-1H-pyrazol-1-yl)-2-methylpiperidin-1-yl)ethyl)piperazin-1-yl)phenyl) piperidine-2,6-dione] | 14 | 24 | 0.51 | –
Cc1ccc(F)c(-c2cnc(Nc3cnn(C4CCN(CCN5CCN(c6ccc(C7CCC(=O)NC7=O)cc6)CC5)CC4)c3)c3nccn23)c1 (stereo not shown) [Compound 36, 3-(4-(4-(2-(4-(4-((5-(2-fluoro-5-methylphenyl)imdazo [1,2-a]pyrazin-8-yl)amino)-1H-pyrazol-1-yl)piperidin-1-yl)ethyl)piperazin-1-yl)phenyl) piperidine-2,6-dione] | 9.8 | 24 | 1.1 | –
Cc1cc(-c2cnc(Nc3cnn([C@H]4CC[C@H](CCN5CCN(c6ccc(C7CCC(=O)NC7=O)cc6)C[C@H]5C)CC4)c3)c3nccn23)c(F)cc1F (stereo partly drawn) [Compound 37, 3-(4-((R)-4-(2-((trans)-4-(4-((5-(2,4-difluoro-5-methylphenyl)imidazo[1,2-a]pyrazin-8-yl)amino)-1H-pyrazol-1-yl)cyclohexyl)ethyl)-3-methylpiperazin-1-yl)phenyl) piperidine-2,6-dione] | 10 | 20 | 3.8 | –
C[C@H]1CN(c2ccc(C3CCC(=O)NC3=O)cc2)CCN1CCN1CCC(n2cc(Nc3ncc(C4CC4)n4ccnc34)cn2)CC1 (stereo partly drawn) [Compound 38, 3-(4-((S)-4-(2-(4-(4-((5-cyclopropylimidazo[1,2-a]pyrazin-8-yl)amino)-1H-pyrazol-1-yl)piperidin-1-yl)ethyl)-3-methylpiperazin-1-yl)phenyl) piperidine-2,6-dione] | 9.1 | 25 | 0.51 | –
CS(=O)(=O)c1ccccc1-c1cnc(Nc2cnn(C3CCN(CCN4CCN(c5ccc(C6CCC(=O)NC6=O)cc5)CC4)CC3)c2)c2nccn12 (stereo not shown) [Compound 83, 3-(4-(4-(2-(4-(4-((5-(2-(methylsulfonyl)phenyl)imidazo[1,2-a]pyrazin-8-yl)amino)-1H-pyrazol-1-yl)piperidin-1-yl)ethyl)piperazin-1-yl)phenyl) piperidine-2,6-dione] | – | 90 | – | 1600
